Measurements from ChEMBL document CHEMBL1201862, “PubChem BioAssay data set” (2004).
Calls of active or inactive are those of the source.

Key:
[1] = molecular target: Eukaryotic translation initiation factor 4E (Mus musculus, UniProt P63073); assay: eIF4E–eIF4G protein interaction inhibitors, dose response, biochemical, TR-FRET (AID 855); format: functional;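 note: potency for disrupting eIF4E binding to eIF4GI seen as loss of FRET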
[2] = molecular target: Prothrombin (Bos taurus, UniProt P00735); assay: thrombin inhibition, dose response, biochemical, fluorescence polarization, uHTS hits (AID 602369); format: functional
[3] = molecular target: 72 kDa type IV collagenase (Homo sapiens, UniProt P08253); assay: Dose Response validation of uHTS RPN11 inhibitor hits using a MMP-2 Fluorescence assay.; format: functional
Chain of 72 kDa type IV collagenase (P08253 whole entry): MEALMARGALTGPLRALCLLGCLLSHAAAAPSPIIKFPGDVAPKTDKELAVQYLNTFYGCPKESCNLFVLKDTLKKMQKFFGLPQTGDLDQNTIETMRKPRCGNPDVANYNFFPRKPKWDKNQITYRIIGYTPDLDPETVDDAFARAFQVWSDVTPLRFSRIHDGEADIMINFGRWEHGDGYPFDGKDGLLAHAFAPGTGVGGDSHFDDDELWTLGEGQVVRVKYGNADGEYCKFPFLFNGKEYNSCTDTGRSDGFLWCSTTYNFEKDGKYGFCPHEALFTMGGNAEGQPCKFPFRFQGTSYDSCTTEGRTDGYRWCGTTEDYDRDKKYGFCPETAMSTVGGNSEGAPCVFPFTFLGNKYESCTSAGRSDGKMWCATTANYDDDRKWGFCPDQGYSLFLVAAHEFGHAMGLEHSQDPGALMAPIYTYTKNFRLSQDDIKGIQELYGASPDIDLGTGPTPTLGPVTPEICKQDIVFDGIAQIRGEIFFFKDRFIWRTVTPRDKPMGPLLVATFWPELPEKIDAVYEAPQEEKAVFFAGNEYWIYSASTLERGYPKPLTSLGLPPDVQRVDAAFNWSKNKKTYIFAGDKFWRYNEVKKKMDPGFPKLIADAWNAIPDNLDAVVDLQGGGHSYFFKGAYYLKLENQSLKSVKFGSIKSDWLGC

[4] = molecular target: 26S proteasome non-ATPase regulatory subunit 14 (Homo sapiens, UniProt O00487); assay: inhibition of proteasome subunit RPN11 – biochemical, fluorescence polarization, uHTS hits, confirmation (AID 602368); format: functional
Chain of 26S proteasome non-ATPase regulatory subunit 14 (O00487 whole entry): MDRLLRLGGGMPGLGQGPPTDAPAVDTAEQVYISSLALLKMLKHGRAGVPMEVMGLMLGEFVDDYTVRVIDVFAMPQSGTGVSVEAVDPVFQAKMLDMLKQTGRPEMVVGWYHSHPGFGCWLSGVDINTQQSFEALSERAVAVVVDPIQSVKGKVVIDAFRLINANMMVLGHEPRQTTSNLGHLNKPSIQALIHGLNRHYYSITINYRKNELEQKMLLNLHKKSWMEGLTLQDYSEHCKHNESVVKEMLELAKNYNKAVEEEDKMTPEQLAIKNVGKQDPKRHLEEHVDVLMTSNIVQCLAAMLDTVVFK

[5] = molecular target: T1, Zinc finger protein mex-5 (Caenorhabditis elegans, UniProt Q9XUB2); assay: MEX-5/TCR-2 RNA interaction inhibitors, dose response, biochemical, C. elegans, fluorescence polarization (AID 1960)
T1 sequence (Q9XUB2 whole entry): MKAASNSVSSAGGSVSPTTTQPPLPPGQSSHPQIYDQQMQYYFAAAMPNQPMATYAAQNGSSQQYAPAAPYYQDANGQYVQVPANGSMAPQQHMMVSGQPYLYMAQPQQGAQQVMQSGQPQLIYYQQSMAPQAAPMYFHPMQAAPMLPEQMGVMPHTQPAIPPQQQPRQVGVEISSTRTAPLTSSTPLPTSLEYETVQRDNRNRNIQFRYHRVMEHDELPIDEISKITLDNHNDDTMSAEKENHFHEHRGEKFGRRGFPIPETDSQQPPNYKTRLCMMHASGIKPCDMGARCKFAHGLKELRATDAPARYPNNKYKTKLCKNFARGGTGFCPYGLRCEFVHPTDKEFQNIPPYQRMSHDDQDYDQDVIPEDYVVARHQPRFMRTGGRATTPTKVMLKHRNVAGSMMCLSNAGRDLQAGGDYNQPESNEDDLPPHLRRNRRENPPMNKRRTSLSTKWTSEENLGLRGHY

[6] = molecular target: T2, RNA-binding protein pos-1 (Caenorhabditis elegans, UniProt G5EF15); assay: inhibitors of POS-1/mex-3 RNA binding, dose response, biochemical, fluorescence polarization (AID 1964);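 note: purified POS-1 fused to maltose binding protein made in E. coli; potency of compounds blocking POS-1 binding to fluorescent RNA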
T2 sequence (G5EF15 whole entry): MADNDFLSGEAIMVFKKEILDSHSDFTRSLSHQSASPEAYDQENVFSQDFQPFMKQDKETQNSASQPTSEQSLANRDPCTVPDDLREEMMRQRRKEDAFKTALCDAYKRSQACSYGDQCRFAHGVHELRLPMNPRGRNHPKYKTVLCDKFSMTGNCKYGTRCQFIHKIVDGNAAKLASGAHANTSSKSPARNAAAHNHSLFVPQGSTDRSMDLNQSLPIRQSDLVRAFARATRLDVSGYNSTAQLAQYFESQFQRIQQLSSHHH

[7] = molecular target: Procathepsin L (Homo sapiens, UniProt P07711)
Chain of Procathepsin L (P07711 whole entry): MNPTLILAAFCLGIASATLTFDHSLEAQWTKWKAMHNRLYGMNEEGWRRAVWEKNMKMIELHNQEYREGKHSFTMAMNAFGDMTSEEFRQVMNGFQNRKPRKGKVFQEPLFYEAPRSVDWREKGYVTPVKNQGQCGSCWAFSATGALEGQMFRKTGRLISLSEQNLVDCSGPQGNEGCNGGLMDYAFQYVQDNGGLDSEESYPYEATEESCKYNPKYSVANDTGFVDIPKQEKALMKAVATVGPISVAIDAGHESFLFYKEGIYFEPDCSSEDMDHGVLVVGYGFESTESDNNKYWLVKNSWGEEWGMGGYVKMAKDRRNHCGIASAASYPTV

[8] = molecular target: T3, Aspartyl aminopeptidase (Plasmodium falciparum 3D7, UniProt Q8I2J3)
T3 sequence (Q8I2J3 whole entry): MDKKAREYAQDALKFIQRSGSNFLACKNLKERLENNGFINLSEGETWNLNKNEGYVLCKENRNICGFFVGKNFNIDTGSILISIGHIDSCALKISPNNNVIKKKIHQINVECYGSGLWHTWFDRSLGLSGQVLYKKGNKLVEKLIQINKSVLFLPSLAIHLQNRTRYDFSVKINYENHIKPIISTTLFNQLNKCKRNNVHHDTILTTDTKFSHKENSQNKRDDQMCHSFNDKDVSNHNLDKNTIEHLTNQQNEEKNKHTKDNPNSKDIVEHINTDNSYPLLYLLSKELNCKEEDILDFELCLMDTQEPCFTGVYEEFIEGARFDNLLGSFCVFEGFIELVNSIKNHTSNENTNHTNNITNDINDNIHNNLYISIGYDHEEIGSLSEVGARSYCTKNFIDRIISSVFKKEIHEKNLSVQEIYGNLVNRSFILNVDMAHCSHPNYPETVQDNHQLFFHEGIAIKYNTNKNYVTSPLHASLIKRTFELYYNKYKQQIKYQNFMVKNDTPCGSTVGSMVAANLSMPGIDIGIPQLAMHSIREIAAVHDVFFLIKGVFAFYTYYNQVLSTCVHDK

[9] = inhibitors of Vif binding to APOBEC3G peptide, primary screen, biochemical, TR-FRET, GST-Vif 1-94, biotin-A3G peptide, dose response retest (AID 1117319); format: functional;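 note: TR-FRET signal of purified GST-Vif binding a biotinylated A3G peptide; inhibitors lower the FRET signal by blocking Vif and A3G binding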
[10] = molecular target: Prothrombin (Homo sapiens, UniProt P00734); assay: Thrombin 1536 HTS Dose Response Confirmation. [Related pubchem assays: 1046 (Thrombin 1536 HTS; hits were confirmed in this assay)]; format: functional
[11] = test system: Streptococcus sp. 'group A'; assay: growth inhibition of control SK(-) GAS strain, dose response, counter-screen for streptokinase expression inhibitor project, luminescence, kanamycin, BacTiterGlo, confirmation (AID 1900); format: functional, organism-based
[12] = test system: Streptococcus; assay: Group A Streptococcus viability loss, dose response, counter-screen for streptokinase expression inhibitor project, luminescence, BacTiterGlo (AID 1915); format: functional, organism-based;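 note: potency for reduction of bacterial viability or growth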
[13] = molecular target: T4, Streptokinase A (Streptococcus pyogenes serotype M1, UniProt P10520); assay: S. pyogenes streptokinase expression inhibitors, potency, dose response, plasminogen activation absorbance, OD405 (AID 1914); format: functional, Streptococcus pyogenes M1 GAS;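 note: secreted streptokinase activity via plasminogen activation per viability signal from cell pellet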
T4 sequence (P10520 whole entry): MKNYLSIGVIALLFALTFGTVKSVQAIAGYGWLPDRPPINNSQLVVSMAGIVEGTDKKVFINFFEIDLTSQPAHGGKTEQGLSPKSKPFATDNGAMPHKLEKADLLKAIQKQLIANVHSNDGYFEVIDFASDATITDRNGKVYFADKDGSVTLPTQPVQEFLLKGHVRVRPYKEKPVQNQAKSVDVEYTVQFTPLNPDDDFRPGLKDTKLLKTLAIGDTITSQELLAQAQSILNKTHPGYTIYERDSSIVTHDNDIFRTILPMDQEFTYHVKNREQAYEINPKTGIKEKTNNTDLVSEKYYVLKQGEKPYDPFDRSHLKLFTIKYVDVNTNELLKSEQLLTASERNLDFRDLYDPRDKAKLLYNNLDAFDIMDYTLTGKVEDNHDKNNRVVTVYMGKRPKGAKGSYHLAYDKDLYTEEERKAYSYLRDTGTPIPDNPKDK

[14] = cytotoxicity in HPDE-C7 cells, cell-based, fluorescence, HTS (AID 430); format: functional; settings: Homo sapiens
[15] = cytotoxicity in KRAS-transformed pancreatic duct cells, primary screen, cell-based, fluorescence, HTS (AID 431); format: functional; settings: Homo sapiens;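 note: cell line used: HPDE-C7K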
[16] = molecular target: T5, High affinity choline transporter 1 (Homo sapiens, UniProt Q9GZV3); assay: CHT inhibitors, dose response, cell-based, 5-point CRC, membrane potential dye (AID 504840); format: functional
T5 sequence (Q9GZV3 whole entry): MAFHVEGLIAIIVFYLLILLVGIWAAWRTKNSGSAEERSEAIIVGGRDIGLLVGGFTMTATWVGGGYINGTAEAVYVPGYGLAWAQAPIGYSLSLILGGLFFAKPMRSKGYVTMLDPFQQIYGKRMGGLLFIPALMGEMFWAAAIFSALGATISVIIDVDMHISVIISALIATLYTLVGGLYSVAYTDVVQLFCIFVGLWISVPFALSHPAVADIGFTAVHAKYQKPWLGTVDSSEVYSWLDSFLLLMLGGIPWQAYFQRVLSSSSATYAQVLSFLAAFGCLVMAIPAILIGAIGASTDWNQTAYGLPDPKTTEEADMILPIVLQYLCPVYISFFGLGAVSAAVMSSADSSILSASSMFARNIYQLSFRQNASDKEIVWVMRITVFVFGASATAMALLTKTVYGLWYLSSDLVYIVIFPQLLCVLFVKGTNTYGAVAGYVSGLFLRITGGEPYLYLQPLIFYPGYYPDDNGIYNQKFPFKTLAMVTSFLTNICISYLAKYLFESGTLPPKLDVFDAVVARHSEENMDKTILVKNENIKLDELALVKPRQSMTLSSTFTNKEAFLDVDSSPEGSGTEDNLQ

[17] = inhibitors of PGC1a acetylation in cells, dose response, cell-based, cherry-picked samples (AID 720514); format: functional;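 note: potency may reflect raised or lowered acetylation signal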
[18] = molecular target: T6, Carboxy-terminal domain RNA polymerase II polypeptide A small phosphatase 1 (Homo sapiens, UniProt Q9GZU7); assay: inhibitors of CTDSP1, concentration-response testing, biochemical assay, absorbance-based, actives from ultra-high-throughput screening (AID 540297); format: functional
T6 sequence (Q9GZU7 whole entry): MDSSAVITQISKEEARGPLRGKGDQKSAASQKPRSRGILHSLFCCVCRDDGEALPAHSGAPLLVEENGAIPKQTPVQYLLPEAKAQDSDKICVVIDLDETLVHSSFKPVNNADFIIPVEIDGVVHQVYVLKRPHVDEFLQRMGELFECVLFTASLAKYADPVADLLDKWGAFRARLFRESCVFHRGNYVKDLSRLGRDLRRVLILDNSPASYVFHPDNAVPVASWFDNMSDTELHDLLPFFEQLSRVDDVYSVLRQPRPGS

Chain of Eukaryotic translation initiation factor 4E (P63073 whole entry): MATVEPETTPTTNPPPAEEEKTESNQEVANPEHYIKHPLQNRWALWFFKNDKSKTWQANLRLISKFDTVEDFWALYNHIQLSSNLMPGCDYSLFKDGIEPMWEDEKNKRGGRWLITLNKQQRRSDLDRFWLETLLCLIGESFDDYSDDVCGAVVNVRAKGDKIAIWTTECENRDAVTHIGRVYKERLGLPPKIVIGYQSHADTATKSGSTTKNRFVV

## CC(=O)Nc1ccc(S(=O)(=O)NCCSc2ccccn2)cc1
[1]
  IC50: > 64 µM (inactive)

## Cc1c(OCC(N)=O)ccc2c(-c3ccccc3)cc(=O)oc12
[2]
  IC50: 78.1 µM (active)
[3]
  IC50: 57.2 µM (active)
[4]
  IC50: 57.7 µM (active)

## Cc1ccc(/C=C(\C#N)C(=O)Nc2c(C)cccc2C)s1
[2]
  IC50: 23.5 µM (active)
[3]
  IC50: > 100 µM (inactive)
[5]
  EC50: > 300 µM (not active)
[4]
  IC50: 13.5 µM (active)
[6]
  EC50: > 300 µM (not active)

## Cc1nc2ccccn2c1C(=O)NNC(=O)Nc1ccccc1
[7]
  IC50: > 59.6 µM (not active)
[8]
  IC50: 1.05 µM (active)

## NCCOc1ccccc1Cc1ccccc1
[9]
  IC50: > 100 µM (active)

## COC(=O)Nc1sc2c(c1C(=O)NCc1ccco1)CCCC2
[9]
  IC50: > 100 µM (active)

## O=C(Cn1cn[n+](CC(=O)c2ccc(Cl)cc2Cl)c1)c1ccc([N+](=O)[O-])cc1
[10]
  IC50: 1.7 µM (active)
[11]
  EC50: 11.3 µM (active)
[12]
  EC50: > 150 µM (not active)
[13]
  EC50: 21.4 µM (active)

## Cc1cc(C)nc(Nc2ccccc2Br)n1
[10]
  IC50: > 50 µM (not active)

## CCOCCCn1c(C)nc2c(c1=O)c1nc3ccccc3nc1n2CCC1=CCCCC1
[14]
  EC50: > 20 µM (not active)
[15]
  EC50: > 20 µM (not active)

## Cc1cc(C)nc(SCc2cc(=O)c(OC(=O)c3ccc(Br)o3)co2)n1
[16]
  IC50: 14.5 µM (active)

## Cc1nnc(NNS(=O)(=O)c2ccc(Cl)cc2)[nH]c1=O
[7]
  IC50: > 59.6 µM (not active)
[8]
  IC50: 1.57 µM (active)

## O=C(c1cnn2cccnc12)N1CCN(Cc2ccc3c(c2)OCO3)CC1
[9]
  IC50: > 100 µM (active)

## C=CCNc1nc2ccccc2nc1NS(=O)(=O)c1ccc(Br)cc1
[16]
  IC50: 13.2 µM (active)

## COc1cccc(-n2c(Cc3cc(O)nc(O)n3)nnc2SCC(=O)NC2CCCC2)c1
[9]
  IC50: > 100 µM (active)

## COc1ccc(C(=O)N2C(=S)NC(=O)/C2=C\c2ccc(C)cc2)cc1
[2]
  IC50: 37.8 µM (active)
[3]
  IC50: 23.8 µM (active)
[4]
  IC50: 22.5 µM (active)

## COC(=O)c1ccccc1NC(=O)c1cc(-c2cccs2)on1
[14]
  EC50: > 20 µM (not active)
[15]
  EC50: > 20 µM (not active)

## COc1ccc(NC(C)(C)c2nnnn2-c2c(C)cccc2C)cc1
[16]
  IC50: 25.1 µM (active)

## Cc1c(NS(=O)(=O)c2ccc(Cl)c(C(=O)OCC(=O)NCc3ccco3)c2)c(=O)n(-c2ccccc2)n1C
[10]
  IC50: > 50 µM (not active)

## Cc1noc(C)c1CSc1nnc(-c2cccnc2)n1C1CCCCC1C (stereo not given)
[17]
  AC50: 28.4 µM (active)

## CC1CN(C(=O)CCC(=O)NC(C)c2ccccc2)c2cc(Cl)ccc2O1 (stereo not given)
[16]
  IC50: 15.1 µM (active)

## CN(CC(=O)Nc1ccc(Cl)cc1)C(=O)CCc1nc(O)c2c3c(sc2n1)CCCC3
[2]
  IC50: 26.4 µM (active)
[3]
  IC50: > 100 µM (inactive)
[4]
  IC50: 30.7 µM (active)

## CCc1ccc(S(=O)(=O)NC(CC(=O)O)c2ccccc2)cc1 (stereo not given)
[14]
  EC50: > 20 µM (not active)
[15]
  EC50: > 20 µM (not active)

## COc1c(C)cc(C(=O)C2CCCN(S(=O)(=O)c3c(C)noc3C)C2)cc1C (stereo not given)
[10]
  IC50: > 50 µM (not active)

## Cc1c(-n2cccc2C=O)cccc1[N+](=O)[O-]
[1]
  IC50: 50 µM (inactive)

## O=S(=O)(Nn1cnnc1)c1ccccc1
[7]
  IC50: > 59.6 µM (not active)
[8]
  IC50: 3.81 µM (active)

## Cc1ccccc1CCNCc1cc2cccc(C)c2nc1O
[16]
  IC50: 10 µM (active)

## O=C(Nc1ccc(-c2nc3ccccc3s2)c(O)c1)C1=COCCO1
[2]
  IC50: 91.4 µM (active)
[3]
  IC50: > 100 µM (inactive)
[4]
  IC50: 22.5 µM (active)
[18]
  IC50: 3.39 µM (active)

## CC(=O)Nc1ccc(S(=O)(=O)Nc2nnc(C(C)C)s2)cc1
[9]
  IC50: > 100 µM (active)

## O=C(Cc1ccc(Cl)cc1)OCc1nnc(-c2ccccc2)o1
[1]
  IC50: 50 µM (inactive)

## O=C(Cc1ccccc1)OCn1nnc2ccccc2c1=O
[1]
  IC50: > 64 µM (inactive)

## CCOC(=O)c1ccc(/N=C/c2nc(-c3ccccc3)oc2OC(C)=O)cc1
[10]
  IC50: 0.526 µM (active)

## COc1cc(CN2C[C@@H]3N[C@H](C2)[C@@H]3c2ccc(-c3ccccc3C)cc2)cc(OC)c1
[17]
  AC50: 6.84 µM (active)

## C/C(=N/NC(=O)c1cc(Cl)ccc1O)C12CC3CC(CC(C3)C1)C2
[16]
  IC50: 8.58 µM (active)
